Source: patent US10906924B2, “Modulators of indoleamine 2,3-dioxygenase” (GLAXOSMITHKLINE INTELLECTUAL PROPERTY DEVELOPMENT LIMITED, priority 2017, dated 2021)
Counter-ions that a name gives are not always drawn.

What follows are compounds tested against indoleamine 2,3-dioxygenase (IDO1) (Homo sapiens, UniProt P14902) (assay: PBMC IDO1 assay (kynurenine by mass spectrometry)). Settings: human PBMC stimulated with IFN-γ and LPS, 2 days incubation, kynurenine detected by mass spectrometry; read-out: IDO1 PBMC pIC50 (converted).
Chain of indoleamine 2,3-dioxygenase (IDO1) (P14902 whole entry): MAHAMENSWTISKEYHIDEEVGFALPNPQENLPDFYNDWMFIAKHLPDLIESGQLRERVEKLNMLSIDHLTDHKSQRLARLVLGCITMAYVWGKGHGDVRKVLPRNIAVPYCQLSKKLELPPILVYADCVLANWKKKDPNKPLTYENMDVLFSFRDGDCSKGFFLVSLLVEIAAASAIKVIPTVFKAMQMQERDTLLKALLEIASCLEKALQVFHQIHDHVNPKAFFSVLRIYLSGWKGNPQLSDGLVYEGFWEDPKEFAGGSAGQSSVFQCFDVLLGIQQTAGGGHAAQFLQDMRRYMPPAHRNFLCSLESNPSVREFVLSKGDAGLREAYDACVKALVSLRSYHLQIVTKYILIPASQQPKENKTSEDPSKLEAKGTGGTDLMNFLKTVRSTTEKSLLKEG
Assay type: cell-based

Row | Structure (SMILES) | IC50 [nM]
1 | CCOC(=O)N1CCC2(CC1)C[C@H](NC(=O)c1cccc3cn(COP(=O)(O)O)nc13)c1nc(OC)ccc1O2 [Example 56, ethyl (S)-6′-methoxy-4′-(2-((phosphonooxy)methyl)-2H-indazole-7-carboxamido)-3′,4′-dihydrospiro[piperidine-4,2′-pyrano[3,2-b]pyridine]-1-carboxylate, bis 2-amino-2-(hydroxymethyl)-1,3-propanediol salt] | 79.4
2 | COC(=O)N1CCC2(CC1)C[C@H](NC(=O)c1cccc3cn[nH]c13)c1nc(OC)ccc1O2 [Example 57, methyl (S)-4′-(1H-indazole-7-carboxamido)-6′-methoxy-3′,4′-dihydrospiro[piperidine-4,2′-pyrano[3,2-b]pyridine]-1-carboxylate] | 10
3 | CCOC(=O)N1CCC2(CC1)C[C@H](NC(=O)c1cccc3cn(COP(=O)(O)O)nc13)c1cc(Br)ncc1O2 [Example 58, (S)-ethyl 6′-bromo-4′-(2-((phosphonooxy)methyl)-2H-indazole-7-carboxamido)-3′,4′-dihydrospiro[piperidine-4,2′-pyrano[2,3-c]pyridine]-1-carboxylate] | 501
4 | CCOC(=O)N1CCC2(CC1)C[C@H](NC(=O)c1cccc3c(CO)n[nH]c13)c1cc(Br)ccc1O2 [Example 59, ethyl (S)-6-bromo-4-(3-(hydroxymethyl)-1H-indazole-7-carboxamido) spiro[chromane-2,4′-piperidine]-1′-carboxylate] | 0.794
5 | CCOC(=O)N1CCC2(CC1)C[C@H](NC(=O)c1cccc3c(COC(=O)CCC(=O)O)[nH]nc13)c1cc(Br)ccc1O2 [Example 60, (S)-4-((7-((6-bromo-1′-(ethoxycarbonyl)spiro[chromane-2,4′-piperidin]-4-yl)carbamoyl)-1H-indazol-3-yl)methoxy)-4-oxobutanoic acid] | 1.26
6 | CCOC(=O)N1CCC2(CC1)C[C@H](NC(=O)c1cccc3c(COC(C)=O)[nH]nc13)c1cc(Br)ccc1O2 [Example 61, ethyl (S)-4-(3-(acetoxymethyl)-1H-indazole-7-carboxamido)-6-bromo spiro[chromane-2,4′-piperidine]-1′-carboxylate] | 1.26
